Results published in US20230233650A1, “NOVEL FATTY ACID MODIFIED UROCORTIN 2 DERIVATIVES AND THE USES THEREOF” (Novo Nordisk A/S, priority 2021, published 2023).
pIC50: −log10 of the molar value. Numbered stars: 1 amine (or outer) side, 2 acyl side, 3 side chain; on linkers, the order of the positions; unused ones are H or OH. Side chains are listed from the residue outwards. Peptide text beside a SMILES is read from it. * marks the point of attachment. C20 diacid = O=C(O)CCCCCCCCCCCCCCCCCCC(=O)*; γGlu = O=C(O)[C@H](CCC(=O)[*:2])N[*:1]; AEEA = NCCOCCOCC(=O)O

Tests used:
Human CRF1 receptor = biological target: T1, Human CRF1 receptor (Homo sapiens, UniProt P34998); assay: CRF1 receptor binding, scintillation proximity assay (SPA); conditions: displacement of [125I]-Sauvagine, CHO-K1 cell membranes
T1 construct: host or cells: CHO-K1 (membrane preparation)
T1 sequence (P34998 24-415): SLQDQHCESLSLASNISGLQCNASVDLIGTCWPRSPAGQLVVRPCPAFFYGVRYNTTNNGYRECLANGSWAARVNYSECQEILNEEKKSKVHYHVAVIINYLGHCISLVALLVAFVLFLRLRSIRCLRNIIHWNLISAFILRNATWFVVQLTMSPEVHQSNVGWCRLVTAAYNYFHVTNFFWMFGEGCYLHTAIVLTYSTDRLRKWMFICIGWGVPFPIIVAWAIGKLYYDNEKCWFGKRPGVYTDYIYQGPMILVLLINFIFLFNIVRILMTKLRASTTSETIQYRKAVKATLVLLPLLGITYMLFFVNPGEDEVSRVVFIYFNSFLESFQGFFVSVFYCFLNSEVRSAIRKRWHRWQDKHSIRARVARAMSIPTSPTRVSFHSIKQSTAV
Description: (§1) The purpose of this example was to test the in vitro binding of the compounds of the invention to receptor subtypes CRF1 and CRF2. The in vitro binding of the compounds was determined in a scintillation proximity assay (SPA) as described below. The native, human Ucn1 and Ucn2 peptides are included as references. Scintillation Proximity Assay: […] Both cell lines were cultured at 37° C. in a humidified atmosphere with 5% CO2. […] Membranes were prepared by the following protocol: cultured cells were washed twice with cold Dulbecco’s phosphate buffered saline and detached using TrypLE™ (ThermoFisher) and transferred to tubes and centrifuged for 5 minutes at 1000 g at +4° C. Pellets were resuspended in ice cold homogenization buffer (20 mM Hepes pH 7.1, 5 mM MgCl2, 1 mg/ml Bacitracin with 2 complete EDTA-free protease inhibitor cocktail tablets/50 ml (Roche)) and then homogenized for 30 seconds using a Ultra-Turrax T25 tissue homogenizer (IKA) at medium speed. The homogenate was centrifuged at 35,000 g for 15 minutes at +4° C. using an ultracentrifuge, and the supernatant was discarded, and fresh homogenization buffer was added. Homogenization of the pellet was repeated a total of three times. The final pellet was resuspended in a few millilitres of homogenization buffer and protein concentration was determined using the Bradford method. The membrane preparation was transferred to cryotubes, and the aliquots were stored at -80° C. Each membrane preparation was subsequently titrated to give an appropriate window in the assay. Test procedure: […] Plates were sealed and incubated at 25° C. for 2 hours in a plate shaker set at 400 rpm and thereafter centrifuged at 1500 rpm for 10 minutes. SPA plates were let to stand at room temperature for about 16 hours prior to reading on microplate scintillation counter. Displacement of radioligand was measured as reduction in luminescence, and IC50 values were calculated by nonlinear regression analysis of four parameter sigmoidal dose-response curves.

Human CRF2 receptor = biological target: T2, Human CRF2 receptor (Homo sapiens, UniProt Q13324); assay: CRF2 receptor binding, scintillation proximity assay (SPA); conditions: displacement of [125I]-Sauvagine, CHO-K1 cell membranes
T2 construct: host or cells: CHO-K1 (membrane preparation)
T2 sequence (Q13324 1-411): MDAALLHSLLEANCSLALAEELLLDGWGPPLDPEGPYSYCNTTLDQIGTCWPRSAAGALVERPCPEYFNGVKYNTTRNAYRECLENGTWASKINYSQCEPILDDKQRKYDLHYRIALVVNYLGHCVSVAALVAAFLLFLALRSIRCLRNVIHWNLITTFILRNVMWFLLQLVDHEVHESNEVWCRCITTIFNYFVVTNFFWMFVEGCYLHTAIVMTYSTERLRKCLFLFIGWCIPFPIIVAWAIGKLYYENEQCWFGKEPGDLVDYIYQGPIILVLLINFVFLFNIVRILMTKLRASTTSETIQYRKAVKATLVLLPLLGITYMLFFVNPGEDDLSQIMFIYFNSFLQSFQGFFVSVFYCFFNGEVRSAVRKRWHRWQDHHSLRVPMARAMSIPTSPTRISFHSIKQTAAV
Description: as §1

Row | Structure (SMILES) | pIC50 (Human CRF1 receptor) | pIC50 (Human CRF2 receptor)
1 | CC[C@H](C)[C@H](NC(=O)[C@H](CCC(=O)O)NC(=O)[C@H](C)NC(=O)[C@H](CC(N)=O)NC(=O)[C@@H](NC(=O)[C@@H](NC(=O)[C@H](C)NC(=O)[C@H](CCC(N)=O)NC(=O)[C@H](CCC(=O)O)NC(=O)[C@H](CCCNC(=N)N)NC(=O)[C@H](C)NC(=O)[C@H](C)NC(=O)[C@H](CCCNC(=N)N)NC(=O)[C@H](C)NC(=O)[C@H](CCCNC(=N)N)NC(=O)[C@H](C)NC(=O)[C@H](CCC(N)=O)NC(=O)[C@H](CCC(=O)O)NC(=O)[C@H](CC(C)C)NC(=O)[C@H](CC(C)C)NC(=O)[C@@H](NC(=O)[C@H](CCC(N)=O)NC(=O)[C@H](CC(C)C)NC(=O)[C@H](CC(C)C)NC(=O)CNC(=O)[C@@H](NC(=O)[C@@H]1CCCN1C(=O)[C@@H](NC(=O)[C@H](CC(=O)O)NC(=O)[C@H](CC(C)C)NC(=O)[C@H](CO)NC(=O)[C@H](CC(C)C)NC(=O)[C@@H](NC(=O)[C@@H](NC(=O)[C@@H](N)CCCCNC(=O)COCCOCCNC(=O)COCCOCCNC(=O)CC[C@H](NC(=O)CC[C@H](NC(=O)CC[C@H](NC(=O)CCCCCCCCCCCCCCCCCCC(=O)O)C(=O)O)C(=O)O)C(=O)O)[C@@H](C)CC)C(C)C)C(C)C)[C@@H](C)CC)[C@@H](C)CC)[C@@H](C)O)[C@@H](C)O)C(=O)N[C@@H](CC(C)C)C(=O)N[C@@H](C)C(=O)N[C@@H](CCC(=O)O)C(=O)N[C@H](C(N)=O)C(C)C [Compound 3] (H-K([AEEA-AEEA-γGlu-γGlu-γGlu-C20 diacid])IVLSLDVPIGLLQILLEQARARAAREQATTNAEILAEV-NH2) | < 6.00 | 8.94
2 | CC[C@H](C)[C@H](NC(=O)[C@H](CCC(=O)O)NC(=O)[C@H](C)NC(=O)[C@H](CC(N)=O)NC(=O)[C@@H](NC(=O)[C@@H](NC(=O)[C@H](C)NC(=O)[C@H](CCC(N)=O)NC(=O)[C@H](CCC(=O)O)NC(=O)[C@H](CCCNC(=N)N)NC(=O)[C@H](C)NC(=O)[C@H](C)NC(=O)[C@H](CCCNC(=N)N)NC(=O)[C@H](C)NC(=O)[C@H](CCCNC(=N)N)NC(=O)[C@H](C)NC(=O)[C@H](CCC(N)=O)NC(=O)[C@H](CCC(=O)O)NC(=O)[C@H](CC(C)C)NC(=O)[C@H](CC(C)C)NC(=O)[C@@H](NC(=O)[C@H](CCC(N)=O)NC(=O)[C@H](CC(C)C)NC(=O)[C@H](CC(C)C)NC(=O)CNC(=O)[C@@H](NC(=O)[C@@H]1CCCN1C(=O)[C@@H](NC(=O)[C@H](CC(=O)O)NC(=O)[C@H](CC(C)C)NC(=O)[C@H](CO)NC(=O)[C@H](CC(C)C)NC(=O)[C@@H](NC(=O)[C@@H](NC(=O)[C@@H](N)CCCCNC(=O)COCCOCCNC(=O)COCCOCCNC(=O)CC[C@H](NC(=O)CC[C@H](NC(=O)CC[C@H](NC(=O)CCCCCCCCCCCCCCCCCCC(=O)O)C(=O)O)C(=O)O)C(=O)O)[C@@H](C)CC)C(C)C)C(C)C)[C@@H](C)CC)[C@@H](C)CC)[C@@H](C)O)[C@@H](C)O)C(=O)N[C@@H](CC(C)C)C(=O)N[C@@H](CCC(=O)O)C(=O)N[C@@H](CCCNC(=N)N)C(=O)N[C@H](C(N)=O)C(C)C [Compound 4] (H-K([AEEA-AEEA-γGlu-γGlu-γGlu-C20 diacid])IVLSLDVPIGLLQILLEQARARAAREQATTNAEILERV-NH2) | < 6.00 | 8.83
